From article PMC6063448, “Antimicrobial activity of linear lipopeptides derived from BP100 towards plant pathogens” (PLoS ONE, 2018)

Experiments:
[1] = tested on: Fusarium oxysporum f. sp. lycopersici FOL 3 race 2; assay: MIC, antifungal growth inhibition in microtiter plates (PDB); assay type: cell-based; conditions: Fo, 22°C, seven days, OD 600 nm, lowest concentration with no growth, given as interval of tested concentrations, three replicates, experiment repeated twice
Method in brief: (§1)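 Conidial suspensions (10^3 conidia/mL P. expansum, 10^4 F. oxysporum) incubated with peptides in PDB with 0.003% chloramphenicol at 22 °C for seven days, OD600 read every 2 h. MIC is the lowest concentration with no growth at the end; triplicates, experiment repeated twice.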

[2] = tested on: Penicillium expansum EPS26; assay: as above; assay type: cell-based; conditions: Pe, 22°C, seven days, OD 600 nm, lowest concentration with no growth, given as interval of tested concentrations, three replicates, experiment repeated twice
Method in brief: as §1

[3] = tested on: defense-related genes in tomato plants; assay: Induction of defense gene expression of tomato plants (RT-qPCR); assay type: in vivo, tomato cv. Rio Grande; conditions: for BCB gene expression, fold induction / ERT3 gene expression, fold induction / GluA gene expression, fold induction / Harp gene expression, fold induction / LOX gene expression, fold induction / Osm2 gene expression, fold induction / PPO gene expression, fold induction / PR1 gene expression, fold induction / PinII gene expression, fold induction / Sub1 gene expression, fold induction / Tas14 gene expression, fold induction: tomato leaves sprayed, 24 h, peptides and flg15 125 μM, JA 2.5 mM, ASM 300 mg/L, ΔΔCt relative to actin, above 2 = overexpression; for Defense gene expression in tomato plants (genes overexpressed): significant overexpression (REST2009)
Procedure: Seeds of tomato cv. Rio Grande plants were sown in hydroponic seed plugs (rockwool), germinated and grown under controlled greenhouse conditions (25 ± 2°C, 16 h light / 15 ± 2°C, 8 h dark, and 60% RH). Two-week old seedlings (two cotyledons) were transplanted into rockwool plugs (7.5×7.5×6.5 cm, Grodan Iberica). The experimental design consisted of three replicates of three plants per treatment. After two weeks, tomato leaves were sprayed with aqueous solutions of BP100, 9 selected derivatives and flg15 at 125 μM, jasmonic acid at 2.5 mM (Sigma-Aldrich, Sant Louis, Missouri, UE), and acybenzolar-S-methyl at 300 mg/L (Syngenta, Basel, Switzerland), until the run-off point. Water-sprayed plants were used as not treated controls. Twenty-four hours after product application leaf samples were collected and processed to extract RNA for RT-qPCR assays. Plant material was ground to a fine powder in liquid nitrogen with the Tissuelyzer II system (Qiagen). Total RNA was extracted from leaves using PureLink Plant RNA Reagent (Invitrogen, Life Technologies) according to the manufacturer’s manual. The RNA was solubilized in RNAse free water and was routinely subjected to DNAse treatment (Ambion® Turbo DNA-free™, Life Technologies) to remove any contaminant DNA. In each step, the RNA was quantified using a Nanodrop N-2000 spectrophotometer, and its integrity verified by denaturing agarose gel electrophoresis. First-strand of complementary DNA (cDNA) was generated from leave RNA using reverse transcriptase (High Capacity cDNA Reverse Transcription Kit, Invitrogen) according to the manufacturer’s manual.
To test gene defense induction in the treated tomato plants, a qPCR assay was performed. Quantitative PCR was carried out in a fluorometric thermal cycler (qPCR Quant Studio 5, Applied Biosystems) by using a Mix SYBR®Green PCR Master Mix (Applied Biosystems). The total reaction volume of this PCR reaction was 20 μL and the reaction mixture was 1 μL of each primer set at the adequate concentration, 10 μL of MixSyber Green, 6 μL of distilled water and 2 μL of cDNA. Melting curve analysis was performed after amplification to verify amplification specificity. A constitutive gene (actin gene) was used as reference control, and the following genes implicated in plant defense response were analyzed: Pathogenesis-related protein-1 (PR1), Harpin (Harp), Polyphenol oxidase (PPO), Subtilisin-like protease (Sub1), Blue copper binding-protein (BCB), Osmotin (Osm2), Acidic β-1,3 endoglucanase (GluA), Lypoxigenase (LOX), Protein inhibitor II (PinII), Dehydrin (Tas14) and Ethylene response transcription factor (ERT3). […] For each gene system, the concentration of the primer pair was optimized. The primer concentration was 100 nM for all the genes except for the GluA, Harp, PR1 and actin genes which optimized concentration was 300 nM. A calibration curve was prepared by cloning the corresponding DNA in the pSpark cloning vector (Canvax, Córdoba, Spain) according to the manufacturer instructions, which was then used to transform E. coli DH5α by standard procedures. The number of plasmid copies were quantified after purification from E. coli (QIAGEN Iberia, S. L., Madrid, Spain), and appropriate dilutions were prepared to obtain the standard curve. […] Relative quantification of gene expression was done using the ΔΔCt method. Each biological repetition treatment was analyzed in duplicate. The mean of the Ct values obtained were used to estimate the fold change value of the endogenous reference gene (actin) and the target plant defense genes.

SMILES | MIC [1] | MIC [2] | BCB gene expression, fold induction [3] | ERT3 gene expression, fold induction [3] | GluA gene expression, fold induction [3] | Harp gene expression, fold induction [3] | LOX gene expression, fold induction [3] | Osm2 gene expression, fold induction [3] | PPO gene expression, fold induction [3] | PR1 gene expression, fold induction [3] | PinII gene expression, fold induction [3] | Sub1 gene expression, fold induction [3] | Tas14 gene expression, fold induction [3] | Defense gene expression in tomato plants (genes overexpressed) ([3]; treatment at 125 μM) | Number of defense-related genes significantly induced ([3]; treatment at 125 μM)
CC[C@H](C)[C@H](NC(=O)[C@H](CCCCN)NC(=O)[C@H](CCCCN)NC(=O)[C@H](Cc1ccccc1)NC(=O)[C@H](CC(C)C)NC(=O)[C@H](CCCCN)NC(=O)[C@@H](N)CCCCN)C(=O)N[C@@H](CC(C)C)C(=O)N[C@@H](CCCCN)C(=O)N[C@@H](Cc1ccc(O)cc1)C(=O)N[C@@H](CC(C)C)C(N)=O [BP100, H-Lys-Lys-Leu-Phe-Lys-Lys-Ile-Leu-Lys-Tyr-Leu-NH2] | 0.8 to 1.6 µM | >25 µM | 0.8 | 1.0 | 1.5 | 0.5 | 1.2 | 1.0 | 3.2 | 2 | 4.9 | 1.8 | 1.4 | PPO and PinII | 
CCCCCC(=O)NCCCC[C@H](NC(=O)[C@H](CC(C)C)NC(=O)[C@H](CCCCN)NC(=O)[C@H](CCCCN)NC(C)=O)C(=O)N[C@@H](CCCCN)C(=O)N[C@@H](CCCCN)C(=O)N[C@H](C(=O)N[C@@H](CC(C)C)C(=O)N[C@@H](CCCCN)C(=O)N[C@@H](Cc1ccc(O)cc1)C(=O)N[C@@H](CC(C)C)C(N)=O)[C@@H](C)CC [BP371, Ac-KKLK(COC5H11)KKILKYL-NH2] | 0.8 to 1.6 µM | 3.1 to 6.2 µM | 1.0 | 0.9 | 0.5 | 0.9 | 1.1 | 0.9 | 0.6 | 0.7 | 1.7 | 0.8 | 0.7 |  | 
CCCCCC(=O)NCCCC[C@H](NC(=O)[C@H](CCCCN)NC(=O)[C@H](CCCCN)NC(=O)[C@H](Cc1ccccc1)NC(=O)[C@H](CC(C)C)NC(=O)[C@H](CCCCN)NC(=O)[C@H](CCCCN)NC(C)=O)C(=O)N[C@@H](CC(C)C)C(=O)N[C@@H](CCCCN)C(=O)N[C@@H](Cc1ccc(O)cc1)C(=O)N[C@@H](CC(C)C)C(N)=O [BP374, Ac-KKLFKKK(COC5H11)LKYL-NH2] | 0.8 to 1.6 µM | >25 µM | 1.0 | 2.0 | 0.5 | 0.9 | 1.9 | 1.6 | 0.7 | 0.5 | 1.7 | 0.8 | 1.2 |  | 
CCCCCC(=O)NCCCC[C@H](NC(=O)[C@H](Cc1ccc(O)cc1)NC(=O)[C@H](CCCCN)NC(=O)[C@H](CC(C)C)NC(=O)[C@@H](NC(=O)[C@H](CCCCN)NC(=O)[C@H](CCCCN)NC(=O)[C@H](Cc1ccccc1)NC(=O)[C@H](CC(C)C)NC(=O)[C@H](CCCCN)NC(=O)[C@H](CCCCN)NC(C)=O)[C@@H](C)CC)C(N)=O [BP378, Ac-KKLFKKILKYK(COC5H11)-NH2] | 0.8 to 1.6 µM | 3.1 to 6.2 µM | 1.3 | 1.0 | 0.6 | 1.2 | 1.5 | 2.9 | 1.7 | 2.0 | 5.8 | 0.9 | 3.5 | PinII, Osm2 and Tas14 | 3
CCCC(=O)NCCCC[C@H](NC(=O)[C@H](CCCCN)NC(C)=O)C(=O)N[C@@H](CC(C)C)C(=O)N[C@@H](Cc1ccccc1)C(=O)N[C@@H](CCCCN)C(=O)N[C@@H](CCCCN)C(=O)N[C@H](C(=O)N[C@@H](CC(C)C)C(=O)N[C@@H](CCCCN)C(=O)N[C@@H](Cc1ccc(O)cc1)C(=O)N[C@@H](CC(C)C)C(N)=O)[C@@H](C)CC [BP381, Ac-KK(COC3H7)LFKKILKYL-NH2] | 0.8 to 1.6 µM | 1.6 to 3.1 µM | 1.2 | 0.7 | 0.6 | 0.7 | 0.8 | 2.1 | 1.3 | 0.2 | 0.4 | 0.5 | 3.4 | one gene (Osm2, Tas14 or BCB) and Osm2 | 
CCCC(=O)NCCCC[C@H](NC(=O)[C@H](CCCCN)NC(=O)[C@H](Cc1ccccc1)NC(=O)[C@H](CC(C)C)NC(=O)[C@H](CCCCN)NC(=O)[C@H](CCCCN)NC(C)=O)C(=O)N[C@H](C(=O)N[C@@H](CC(C)C)C(=O)N[C@@H](CCCCN)C(=O)N[C@@H](Cc1ccc(O)cc1)C(=O)N[C@@H](CC(C)C)C(N)=O)[C@@H](C)CC [BP385, Ac-KKLFKK(COC3H7)ILKYL-NH2] | 1.6 to 3.1 µM | 6.2 to 12.5 µM | 4.2 | 0.2 | 0.7 | 2.3 | 1.1 | 1.2 | 1.7 | 3.2 | 7.1 | 1.0 | 0.7 | one gene (Osm2, Tas14 or BCB) | 
CCCC(=O)NCCCC[C@H](NC(=O)[C@@H](NC(=O)[C@H](CCCCN)NC(=O)[C@H](CCCCN)NC(=O)[C@H](Cc1ccccc1)NC(=O)[C@H](CC(C)C)NC(=O)[C@H](CCCCN)NC(=O)[C@H](CCCCN)NC(C)=O)[C@@H](C)CC)C(=O)N[C@@H](CCCCN)C(=O)N[C@@H](Cc1ccc(O)cc1)C(=O)N[C@@H](CC(C)C)C(N)=O [BP387, Ac-KKLFKKIK(COC3H7)KYL-NH2] | 0.8 to 1.6 µM | 6.2 to 12.5 µM | 1.7 | 0.2 | 0.7 | 1.2 | 0.7 | 1.0 | 1.3 | 0.4 |  | 0.8 | 1.0 | none | 
